Assay results as given in patent publication US9238039B2, “Pyrazolo[1,5-A]pyrimidines for antiviral treatment” (Gilead Sciences, Inc., priority 2010, dated 2016).

System: RSV strain A2
Assay: RSV antiviral cytoprotection assay in Hep2 cells (96-well and 384-well format, Cell TiterGlo read-out)
Assay type: cell-based, Respiratory Syncytial Virus (RSV)
Conditions: human respiratory syncytial virus; for inhibition at 0.5 µM: HEp-2, 0.5 uM, RSV-induced cytopathic effect in Hep2 cells, calculated from fitted dose response curve, normalized to 0% and 100%; for EC50: HEp-2, RSV-induced cytopathic effects, Hep2 cells, class symbols

EC50 [nM] | SMILES | inhibition at 0.5 µM [%]
0.1 to 100 | CCc1ccc(C(=O)N2CCCC[C@H]2c2cc3nc(N4CC[C@H](N)C4)c(C)cn3n2)s1 [Compound 304] | 100
0.1 to 100 | Cc1cn2nc([C@@H]3CCCCN3C(=O)c3cccc(Cl)n3)cc2nc1N1CC[C@H](N)C1 [Compound 305] | 100
0.1 to 100 | Cc1cn2nc([C@@H]3CCCCN3C(=O)c3cncc(Cl)c3)cc2nc1N1CC[C@H](N)C1 [Compound 306] | 100
0.1 to 100 | Cc1cn2nc([C@@H]3CCCCN3C(=O)c3cccc(F)c3F)cc2nc1N1CC[C@H](N)C1 [Compound 307] | 100
0.1 to 100 | COc1ccsc1C(=O)N1CCCC[C@H]1c1cc2nc(N3CC[C@H](N)C3)c(C)cn2n1 [Compound 308] | 100
0.1 to 100 | Cc1cn2nc([C@@H]3CCCCN3C(=O)c3cnc(Cl)cn3)cc2nc1N1CC[C@H](N)C1 [Compound 309] | 100
0.1 to 100 | Cc1cn2nc([C@@H]3CCCCN3C(=O)c3ncc(F)cc3F)cc2nc1N1CC[C@H](N)C1 [Compound 310] | 100
0.1 to 100 | Cc1cn2nc([C@@H]3CCCCN3C(=O)c3cn4ccccc4n3)cc2nc1N1CC[C@H](N)C1 [Compound 311] | 100
0.1 to 100 | Cc1cn2nc([C@@H]3CCCCN3C(=O)c3cc4ccccn4n3)cc2nc1N1CC[C@H](N)C1 [Compound 312] | 100
0.1 to 100 | Cc1cn2nc([C@@H]3CCCCN3C(=O)c3ccc(C4CC4)cc3)cc2nc1N1CC[C@H](N)C1 [Compound 313] | 100
0.1 to 100 | Cc1cn2nc([C@@H]3CCCCN3C(=O)c3sccc3Cl)cc2nc1N1CC[C@H](N)C1 [Compound 314] | 100
0.1 to 100 | Cc1cn2nc([C@@H]3CCCCN3C(=O)c3cc4ncccn4n3)cc2nc1N1CC[C@H](N)C1 [Compound 315] | 100
0.1 to 100 | Cc1cn2nc([C@@H]3CCCCN3C(=O)c3cccc4nnnn34)cc2nc1N1CC[C@H](N)C1 [Compound 316] | 100
0.1 to 100 | Cc1cn2nc([C@@H]3CCCCN3C(=O)c3cccc4c3OCC4)cc2nc1N1CC[C@H](N)C1 [Compound 317] | 100
0.1 to 100 | CC(=O)c1cccc(C(=O)N2CCCC[C@H]2c2cc3nc(N4CC[C@H](N)C4)c(C)cn3n2)c1 [Compound 318] | 100
0.1 to 100 | CCOc1cccc(C(=O)N2CCCC[C@H]2c2cc3nc(N4CC[C@H](N)C4)c(C)cn3n2)c1 [Compound 319] | 100
0.1 to 100 | COc1c(C)cccc1C(=O)N1CCCC[C@H]1c1cc2nc(N3CC[C@H](N)C3)c(C)cn2n1 [Compound 320] | 100
0.1 to 100 | COCc1ccc(C(=O)N2CCCC[C@H]2c2cc3nc(N4CC[C@H](N)C4)c(C)cn3n2)cc1 [Compound 321] | 100
0.1 to 100 | COc1ccc(C(=O)N2CCCC[C@H]2c2cc3nc(N4CC[C@H](N)C4)c(C)cn3n2)c(C)c1 [Compound 322] | 100
0.1 to 100 | CCOc1ccccc1C(=O)N1CCCC[C@H]1c1cc2nc(N3CC[C@H](N)C3)c(C)cn2n1 [Compound 323] | 100
0.1 to 100 | COc1cccc(C(=O)N2CCCC[C@H]2c2cc3nc(N4CC[C@H](N)C4)c(C)cn3n2)c1O [Compound 325] | 98
0.1 to 100 | Cc1cn2nc([C@@H]3CCCCN3C(=O)c3cc(C)c(F)c(C)c3)cc2nc1N1CC[C@H](N)C1 [Compound 326] | 100

EC50 [nM] | SMILES | inhibition at 0.5 µM [%]
0.1 to 100 | Cc1cn2nc([C@@H]3CCCCN3C(=O)c3cn4ccsc4n3)cc2nc1N1CC[C@H](N)C1 [Compound 327] | 100
0.1 to 100 | Cc1cn2nc([C@@H]3CCCCN3C(=O)c3cc(C(C)C)nn3C)cc2nc1N1CC[C@H](N)C1 [Compound 328] | 99
0.1 to 100 | CCCn1nc(C)cc1C(=O)N1CCCC[C@H]1c1cc2nc(N3CC[C@H](N)C3)c(C)cn2n1 [Compound 329] | 98
101 to 1000 | COc1cc(F)ccc1C(=O)N1CCCC[C@H]1c1cc2nc(N3CC[C@H](N)C3)c(C)cn2n1 [Compound 330] | 68
0.1 to 100 | Cc1cn2nc([C@@H]3CCCCN3C(=O)c3cccc(Cl)c3C)cc2nc1N1CC[C@H](N)C1 [Compound 331] | 99
0.1 to 100 | Cc1ccc(C(=O)N2CCCC[C@H]2c2cc3nc(N4CC[C@H](N)C4)c(C)cn3n2)cc1Cl [Compound 332] | 100
0.1 to 100 | Cc1cc(Cl)ccc1C(=O)N1CCCC[C@H]1c1cc2nc(N3CC[C@H](N)C3)c(C)cn2n1 [Compound 333] | 99
0.1 to 100 | Cc1cn2nc([C@@H]3CCCCN3C(=O)c3cccc(C)c3Cl)cc2nc1N1CC[C@H](N)C1 [Compound 334] | 100
0.1 to 100 | Cc1ccc(Cl)cc1C(=O)N1CCCC[C@H]1c1cc2nc(N3CC[C@H](N)C3)c(C)cn2n1 [Compound 335] | 99
101 to 1000 | Cc1cn2nc([C@@H]3CCCCN3C(=O)c3ccc(C(N)=O)s3)cc2nc1N1CC[C@H](N)C1 [Compound 336] | 78
101 to 1000 | Cc1cn2nc([C@@H]3CCCCN3C(=O)c3cccc4ccccc34)cc2nc1N1CC[C@H](N)C1 [Compound 338] | 72
0.1 to 100 | Cc1cn2nc([C@@H]3CCCCN3C(=O)c3cc(O)ccc3Cl)cc2nc1N1CC[C@H](N)C1 [Compound 339] | 99
0.1 to 100 | Cc1cn2nc([C@@H]3CCCCN3C(=O)c3ccc(Cl)c(O)c3)cc2nc1N1CC[C@H](N)C1 [Compound 340] | 100
0.1 to 100 | Cc1cc(C(=O)N2CCCC[C@H]2c2cc3nc(N4CC[C@H](N)C4)c(C)cn3n2)c(Cl)nn1 [Compound 341] | 75
101 to 1000 | Cc1cn2nc([C@@H]3CCCCN3C(=O)c3nonc3NCCO)cc2nc1N1CC[C@H](N)C1 [Compound 342] | 79
101 to 1000 | Cc1cn2nc([C@@H]3CCCCN3C(=O)c3ccc4cccnc4c3)cc2nc1N1CC[C@H](N)C1 [Compound 343] | 60
0.1 to 100 | Cc1cn2nc([C@@H]3CCCCN3C(=O)c3nccc4ccccc34)cc2nc1N1CC[C@H](N)C1 [Compound 344] | 100
0.1 to 100 | Cc1cn2nc([C@@H]3CCCCN3C(=O)c3cc(Cl)cnc3O)cc2nc1N1CC[C@H](N)C1 [Compound 345] | 100
0.1 to 100 | Cc1cn2nc([C@@H]3CCCCN3C(=O)c3ccc(F)c(F)c3O)cc2nc1N1CC[C@H](N)C1 [Compound 346] | 100
0.1 to 100 | Cc1cn2nc([C@@H]3CCCCN3C(=O)c3cc(F)ccc3Cl)cc2nc1N1CC[C@H](N)C1 [Compound 347] | 100
0.1 to 100 | Cc1cn2nc([C@@H]3CCCCN3C(=O)c3c(Cl)c(C)nn3C)cc2nc1N1CC[C@H](N)C1 [Compound 348] | 99
